Reference: patent publication US9561201B2, “Therapeutic compounds” (Fibrotech Therapeutics Pty Ltd, priority 2006, dated 2017)
Entries after “also recorded” stand apart in the source; their conditions may differ.

How the values were obtained:
[1] = system: SD rats post myocardial infarction (LAD ligation); assay: Myocardial infarct rats treated with FT011; assay type: in vivo
Procedure: Twenty rats underwent ligation of left anterior descending coronary artery (LAD) to induce anterior myocardial infarction (MI). Briefly, surgery performed under aseptic conditions on a heated table (37° C.) to maintain body warmth during the course of the procedure. The chest swabbed with chlorhexidine in 70% ethanol to disinfect the area. An incision made into the skin to the left of the sternum and the underlying muscle layers blunt dissected. A thoracotomy performed through the fourth to fifth intercostal space and the ribs held open using retractors to enable access to the heart. The pericardial sac surrounding the heart torn open and a 6-0 prolene suture used to ligate the LAD immediately. Visible blanching and hypokinesis of the anterior wall of the left ventricle and swelling of the left atrium are indicative of successful ligation. The control groups (sham+vehicle, sham+FT011) underwent a sham operation consisting of the same procedure except that the suture passed through the myocardium beneath the LAD without ligation.
Echocardiography was performed on all animals 2 days post surgery and randomised to sham and MI groups. Animals were re-randomised at day 7 post surgery (10 animal each) to receive: vehicle or FT011 (100 mg/kg bid gavage). Every week, systolic blood pressure (SBP) was determined in preheated conscious rats via tail-cuff plethysmography using a non-invasive blood pressure (NIBP) controller and Powerlab (AD instruments, NSW, Australia). Cardiac function was assessed by echocardiography and cardiac catheterization prior to sacrificing at day 35 post surgery for all animals.
Echocardiography, including Doppler examination, was performed using a Vivid 7 Dimension (GE Vingmed, Horten, Norway) echocardiograph with a 10 MHz phased array probe. Electrocardiographic data were acquired simultaneously. End-diastole was defined as the peak of the R wave, and end-systole was defined as the end of the T wave.
Animals were anaesthetized with pentobarbitone sodium 60 mg/kg i.p. injection. Animals underwent echocardiographic interrogation in the left recumbent position. M-mode echocardiography was performed using a parasternal short axis view at the level of the papillary muscles. Left ventricular posterior (LVPW) and anterior wall thickness (LVAW) were obtained during diastole (d) and systole (s), as were the left ventricular internal diameter at end-diastole (LVIDd) and end-systole (LVIDs). From the para-sternal short axis view, the end diastolic and end systolic cross sectional blood pool areas were measured. Fractional area change (FAC) was then calculated according to the formulae: FAC=[(end-diastolic area-end-systolic area)/end-diastolic area]*100.
The apical 4-chamber view was used to assess early and late transmitral peak diastolic flow velocity (E and A waves), using pulsed wave Doppler with a sample volume of 2 mm placed at the tips of the mitral valve leaflets. All Doppler spectra were recorded for 10 cardiac cycles at a sweep speed of 200 mm/s. All parameters were assessed using an average of three beats, and calculations were made in accordance with the American Society of Echocardiography guidelines. All data were acquired and analyzed by a single blinded observer using EchoPAC (GE Vingmed) offline processing.
Post echocardiography, animals were placed on a warming pad (37° C.), intubated using a 14 gauge catheter, and ventilated using positive pressure with a tidal volume of […] at 70 breaths per minute using room air. Animals were secured in a recumbent position and the right jugular vein was cannulated with 0.9% NaCl infused at 100 μL per hour. […] The right internal carotid was then identified and ligated cranially. A 2F miniaturized combined conductance catheter-micromanometer was inserted into the carotid artery to obtain aortic blood pressure, then advanced into the left ventricle until stable pressure volume (PV) loops were obtained.

[2] = system: STZ diabetic (mRen-2)27 rats; assay: Diabetic (mRen-2)27 rats treated with FT011; assay type: in vivo; conditions: for GFR: 16 weeks
Procedure: Forty six-week old female, heterozygous (mRen-2)27 rats (St. Vincent's Hospital Animal House, Melbourne, Australia) were assigned to receive either 55 mg/kg of STZ (Sigma, St. Louis, USA) diluted in 0.1 M citrate buffer, pH 4.5 or citrate buffer alone (non-diabetic) by tail vein injection following an overnight fast. […] Treatment commenced within 24 hours of STZ or citrate buffer injection.
Rats were individually housed in metabolic cages at 4, 8 12 and 16 weeks, habituated for 2 to 3 hours, and urine collected over 24 hours. […] After 24 hours in metabolic cages, an aliquot of urine (5 mL) was collected from the 24-hour urine sample and stored at −70° C. for subsequent analysis of albumin by radio-immunoassay, as previously performed [36]. Prior to sacrifice, the glomerular filtration rate (GFR) was determined by injecting a single shot of 99Tc-DTPA into the tail vein and sampling the blood after 43 minutes, as previously described [37].
Rats were anaesthetised (Nembutal 60 mg/kg body wt i.p. Boehringer-Ingelheim, Australia). […] Kidneys were excised, decapsulated, sliced transversely, half of the kidney snap frozen for tissue RNA assay and other half immersed fix with formalin and paraffin-embedded for subsequent light microscopic evaluation.
Histopathological changes in kidney and heart were assessed in a masked protocol.
In 4 μm kidney sections stained with PAS, 150 to 200 glomeruli from rats were examined in a masked protocol. […] A glomerulosclerotic index (GSI) was then calculated using the Formula (4):
To assess the tubulointerstitial fibrosis in kidney sections were stained with modified Masson's trichrome. Briefly, 5 random non-overlapping fields from 10 rats per group were captured and digitised using a BX50 microscope attached to a Fujix HC5000 digital camera. Digital images were then loaded onto a Pentium III IBM computer as described as above. An area of red in heart and blue in kidney on picrosirius red and trichrome-stained section, respectively, were selected for its color range and the proportional area of tissue with this range of color was then quantified. Calculation of the proportional area stained red and blue (matrix) was then determined using image analysis (AIS, Analytical imaging Station Version 6.0, Ontario, Canada) [37, 39].

[3] = system: mesangial cell line (1097); assay: TGF-β induced 3H-proline incorporation in cultured rat mesangial cells (Example 2); assay type: cell-based, Sprague-Dawley rats; conditions: renal mesangial cells, from 30 to 100 μM
Procedure: The anti-fibrotic effects of 3-methoxy-4-propargyloxybenzaldehyde (FT011) in a renal cell line were tested by measuring proline incorporation after transforming growth factor-β stimulation.
A well-characterized cloned mesangial cell line (1097) isolated from Sprague-Dawley rats was used between passages 30 and 40. Cells were cultured in Dulbecco's Modified Eagle's (DME) medium (Invitrogen, Grand Island, N.Y.) with heat-inactivated fetal bovine serum (FBS), 100 u/mL penicillin and 100 ug/mL streptomycin in a humidified 5% CO2 atmosphere at 37° C.
To compare the effects of tranilast and FT011 on collagen production in vitro, incorporation of tritiated proline was used. Mesangial cells were plated at low density into 24-well culture plates in DME/5% FBS and allowed to adhere overnight. The subconfluent cells were starved overnight in DME/0.5% FBS and […] L-ascorbic acid (Sigma-Aldrich). Tranilast or FT011 was then added to the wells, followed 4 hours later by L-[2,3,4,5-^3H]-proline, 0.5 μCi/well (Amersham) and TGF-β1, 5 ng/ml (R & D systems). Mesangial cells were harvested 48 hours post-stimulation, washed three times with ice cold PBS, and incubated with 10% trichloroacetic acid (TCA) for 30 minutes on ice, followed by a wash in ice cold 10% TCA. Cells were then solubilised in […] 1M NaOH. […]

[4] = system: Mesangial cells; assay: PDGF stimulated matrix synthesis (proline incorporation) in mesangial cells (Example 3); assay type: cell-based, rat
Text: Matrix synthesis may be stimulated by platelet derived growth factor (PDGF).

[5] = MI rats, 100 mg/kg bid gavage from day 7, day 35 post surgery
[6] = MI rats, 100 mg/kg bid gavage, echocardiography
[7] = MI rats, 100 mg/kg bid gavage, listed as FT011, 100 mg/kg
[8] = diabetic rats, 100 mg/kg bid gavage

SMILES: C#CCOc1ccc(/C=C/C(=O)Nc2ccccc2C(=O)O)cc1OC [Analogue 11]
- Myocardial infarct size, treated versus untreated MI groups ([1]; 100 mg/kg bid gavage, P=0.36): similar
- LVED ([1]; MI rats, 100 mg/kg bid gavage): 0.53 ± 0.04 mL
- LVES ([1]; MI rats, 100 mg/kg bid gavage): 0.15 ± 0.02 mL
- LV/BW [1, 5]: 0.22 ± 0.004
- RV/BW [1, 5]: 0.048 ± 0.002
- adverse LV remodelling on echocardiography (LVIDd, LVIDs, FAC, E:A ratio, deceleration time) ([1]; MI rats, 100 mg/kg bid gavage, 5 weeks post MI): significantly attenuated
- Deceleration time [1, 6]: 38.64 ± 1.2 ms
- E:A ratio [1, 6]: 2.00 ± 0.26
- FAC % [1, 6]: 42.69 ± 2.3 %
- LVIDd [1, 6]: 0.92 ± 0.03 cm
- LVIDs [1, 6]: 0.70 ± 0.03 cm
- collagen subtype I and III immunostaining in non-infarct zone [1, 7]: reduction in immunostaining; also recorded: attenuated
- infiltration of ED-1 positive macrophages in non-infarct zone [1, 7]: reduction in macrophage number; also recorded: attenuated
- interstitial fibrosis in non-infarct zone (Masson's trichrome) [1, 7]: marked reduction; also recorded: attenuated
- GFR ([2]; diabetic rats + FT011 100 mg/kg bid gavage): 5.90 ± 0.20 mL/min
- extent of glomerulosclerosis (PAS-stained sections) [2, 8]: reduction
- rise in albuminuria [2, 8]: significantly attenuated
- tubular (tubulointerstitial) fibrosis (trichrome-stained sections) [2, 8]: reduction
- GFR ([2]; non-diabetic control rats + FT011 100 mg/kg bid gavage): 3.63 ± 0.08 mL/min
- proline incorporation after TGF-β stimulation [3]: significantly reduce
- PDGF-stimulated matrix synthesis (proline incorporation) ([4]; 30 and 100 μM): inhibits
- potency at reducing proline incorporation compared with tranilast ([4]; PDGF stimulation, 30 μM): more potent
